In ChEMBL document CHEMBL1240307, “A functional genomics approach to the mode of action of apratoxin A” (Nat Chem Biol, 2006):

Tests used:
Format in all cases: functional
[1] = system: HT-29; test: Antitumor activity against human HT-29 cells assessed as down-regulation of CDC25A mRNA expression at 2 nM after 12 hrs relative to control
[2] = system: HT-29; test: Antitumor activity against human HT-29 cells assessed as down-regulation of TAL1 mRNA expression at 2 nM after 3 hrs relative to control
[3] = system: HT-29; test: Antitumor activity against human HT-29 cells assessed as upregulation of RASSF4 mRNA expression at 2 nM after 6 hrs relative to control
[4] = system: HT-29; test: Antitumor activity against human HT-29 cells assessed as down-regulation of CDC25A mRNA expression at 2 nM after 6 hrs relative to control
[5] = system: HT-29; test: Antitumor activity against human HT-29 cells assessed as down-regulation of CDC25A mRNA expression at 10 nM after 12 hrs relative to control
[6] = system: NCI-H522; test: Cytotoxicity against human NCI-H522 cells by sulforhodamine B assay
[7] = system: HT-29; test: Antitumor activity against human HT-29 cells assessed as upregulation of MGC4504 mRNA expression at 10 nM after 12 hrs relative to control
[8] = system: SK-MEL-2; test: Cytotoxicity against human SK-MEL-2 cells by sulforhodamine B assay
[9] = system: K562; test: Cytotoxicity against human K562 cells by sulforhodamine B assay
[10] = system: U2OS; test: Cell cycle arrest in human U2OS cells assessed as accumulation at G1 phase at 50 nM after 24 hrs by FACS analysis (reference value: 49.8%)
[11] = system: HT-29; test: Antitumor activity against human HT-29 cells assessed as upregulation of HSPA1A mRNA expression at 2 nM after 12 hrs relative to control
[12] = system: HT-29; test: Antitumor activity against human HT-29 cells assessed as down-regulation of TAL1 mRNA expression at 2 nM after 6 hrs relative to control
[13] = system: HCT-15; test: Cytotoxicity against human HCT15 cells by sulforhodamine B assay
[14] = system: NCI-H23; test: Cytotoxicity against human NCI-H23 cells by sulforhodamine B assay
[15] = system: U2OS; test: Cell cycle arrest in human U2OS cells assessed as accumulation at S phase at 5 nM after 24 hrs by FACS analysis (reference value: 37.3%)
[16] = system: HCT-116; test: Cytotoxicity against human HCT116 cells by sulforhodamine B assay
[17] = system: HT-29; test: Antitumor activity against human HT-29 cells assessed as upregulation of DDIT4 mRNA expression at 2 nM after 12 hrs relative to control
[18] = system: ACHN; test: Cytotoxicity against human ACHN cells by sulforhodamine B assay
[19] = system: MDA-MB-435; test: Cytotoxicity against human MDA-MB-435 cells by sulforhodamine B assay
[20] = system: MCF7; test: Cytotoxicity against human MCF7 cells by sulforhodamine B assay
[21] = system: U2OS; test: Cell cycle arrest in human U2OS cells assessed as accumulation at S phase at 50 nM after 24 hrs by FACS analysis (reference value: 37.3%)
[22] = system: HT-29; test: Antitumor activity against human HT-29 cells assessed as down-regulation of CCNE2 mRNA expression at 10 nM after 3 hrs relative to control
[23] = system: MDA-MB-231; test: Cytotoxicity against human MDA-MB-231 cells by sulforhodamine B assay
[24] = system: U2OS; test: Cell cycle arrest in human U2OS cells assessed as accumulation at G1 phase at 5 nM after 48 hrs by FACS analysis (reference value: 49.8%)
[25] = system: M14; test: Cytotoxicity against human M14 cells by sulforhodamine B assay
[26] = system: HT-29; test: Antitumor activity against human HT-29 cells assessed as down-regulation of TAL1 mRNA expression at 10 nM after 6 hrs relative to control
[27] = system: HT-29; test: Antitumor activity against human HT-29 cells assessed as down-regulation of CCNE2 mRNA expression at 2 nM after 6 hrs relative to control
[28] = system: U2OS; test: Cell cycle arrest in human U2OS cells assessed as accumulation at sub-G1 phase at 50 nM after 48 hrs by FACS analysis relative to control
[29] = system: IGROV-1; test: Cytotoxicity against human IGROV1 cells by sulforhodamine B assay
[30] = system: OVCAR-5; test: Cytotoxicity against human OVCAR5 cells by sulforhodamine B assay
[31] = system: KM12; test: Cytotoxicity against human KM12 cells by sulforhodamine B assay
[32] = system: HT-29; test: Antitumor activity against human HT-29 cells assessed as upregulation of KCNK10 mRNA expression at 2 nM after 3 hrs relative to control

SMILES: CC[C@H](C)[C@H]1C(=O)N2CCC[C@H]2C(=O)O[C@H](C(C)(C)C)C[C@@H](C)C[C@H](O)[C@H](C)C2=N[C@@H](/C=C(\C)C(=O)N[C@@H](Cc3ccc(OC)cc3)C(=O)N(C)[C@@H](C)C(=O)N1C)CS2 [APRATOXIN A]
- fold change (FC) [1]: -2.2
- fold change (FC) [2]: -2.52
- fold change (FC) [3]: <=2
- fold change (FC) [4]: <=2
- fold change (FC) [5]: -2.79
- GI50 [6]: 6.03 nM
- fold change (FC) [7]: 12.09
- GI50 [8]: > 100 nM
- GI50 [9]: 14.8 nM
- inhibition at 0.05 µM [10]: 68.3%
- fold change (FC) [11]: <=2
- fold change (FC) [12]: <=2
- GI50 [13]: 4.29 nM
- GI50 [14]: 8.23 nM
- inhibition at 0.005 µM [15]: 28.2%
- GI50 [16]: 0.916 nM
- fold change (FC) [17]: 3.78
- GI50 [18]: 2.69 nM
- GI50 [19]: 3.35 nM
- GI50 [20]: 6.57 nM
- inhibition at 0.05 µM [21]: 22.6%
- fold change (FC) [22]: <=2
- GI50 [23]: 1.46 nM
- inhibition at 0.005 µM [24]: 82.1%
- GI50 [25]: 2.09 nM
- fold change (FC) [26]: <=2
- fold change (FC) [27]: <=2
- inhibition at 0.05 µM [28]: 42.7%
- GI50 [29]: 0.742 nM
- GI50 [30]: > 100 nM
- GI50 [31]: 3.52 nM
- fold change (FC) [32]: <=2
